Structures can show the parent of a compound that is named as a salt.
Assay: Calcium Binding Constants Determination (calcium selective electrode titration)
Format: physicochemical
Settings: for Calcium Ion Binding Constants, Log KCa, pH 9.5 / Calcium Ion Binding Constants, Log KCa, pH 7.6: 35° C., 0.1 M ionic strength
Description: A computer system (Hewlett-Packard) with digital voltmeters was used to collect and analyze data from an Orion calcium selective electrode and a linear syringe buret (Sage Instruments syringe pump plus a linear potentiometer). […] Volumetric accuracy was better than +/- 0.5%.
Three hundred data pairs of [Ca total] vs 10^(E/S), which is a linear measure of [Ca free], were collected and corrected for dilution during each titration. S is the Nernst equation slope, ca. 29 mv/decade, and E is the calcium electrode voltage. Calcium ion was titrated into buffer solution. Here, L represents the sequestering ligand. A ligand-free standard titration calibrated the electrode response. […] A third titration, adding Ca ion to a solution of a fixed [L tot] and fixed [Mg tot] was compared with KCa at different [Ca tot]/[L tot] ratios to reveal KMg at those same ratios. [formula]
This line was extrapolated back to [Ca free]=0 and [Ca tot] at that point represented a measure of calcium binding capacity.

| Structure (SMILES) | Calcium Ion Binding Constants, Log KCa, pH 9.5 | Calcium Ion Binding Constants, Log KCa, pH 7.6 | calcium binding relative to sodium tripolyphosphate and sodium nitrilotriacetate | calcium binding relative to two prior art ether carboxylates and sodium citrate |
| --- | --- | --- | --- | --- |
| O=C(O)COC(CC(=O)O)C(=O)O (stereo not drawn) [2-oxa-1,3,4 butanetricarboxylic acid, sodium salt, reference compound] | 4.4 | – | – | – |
| O=C(O)COC(CC(=O)O)(C(=O)O)C(=O)O [Compound 5, 3,3-dicarboxy-4-oxa-1,6 hexanedioic acid, tetrasodium salt] | 5.5 | 5.3 | at least equivalent | clear advantage in calcium binding |
| O=C([O-])C1CCC(C(=O)[O-])C(C(=O)[O-])(C(=O)[O-])O1.[Na+].[Na+].[Na+].[Na+] (stereo not drawn) [Compound 7, Oxacyclohexane-2,2,3,6-tetracarboxylic acid, tetrasodium salt] | 6.2 | – | at least equivalent | clear advantage in calcium binding |
| O=C([O-])CN(CC(=O)[O-])CC(=O)[O-].[Na+].[Na+].[Na+] [Nitrilotriacetic acid, sodium salt, reference compound] | 5.5 | 3.3 | – | – |
| O=P(O)(O)OP(=O)(O)OP(=O)(O)O [Sodium tripolyphosphate, reference compound] | 4.9 | 3.1 | – | – |

Source: patent US4566984A, “Ether polycarboxylates” (The Procter & Gamble Company, priority 1984, dated 1986)
